In patent publication US20240158446A1, “CYCLIC COMPOUND HAVING SELECTIVE INHIBITORY ACTION ON KRAS OVER HRAS AND NRAS” (CHUGAI SEIYAKU KABUSHIKI KAISHA, priority 2021, published 2024):
Where a SMILES comes first, the peptide text is derived from it. Bridges are numbered along the chain shown (N, C = ends). [ ]: non-standard residue; d: D form. hPhe(3-Cl-4-CF3) = N[C@@H](CCc1ccc(C(F)(F)F)c(Cl)c1)C(=O)O; NPrPhe(4-CF3) = CCCN[C@@H](Cc1ccc(C(F)(F)F)cc1)C(=O)O; NMeGly(cPent) = CN[C@H](C(=O)O)C1CCCC1; Pro(4,4-F2) = O=C(O)[C@@H]1CC(F)(F)CN1; Hyp = O=C(O)[C@@H]1C[C@@H](O)CN1; NMeL = CN[C@@H](CC(C)C)C(=O)O; NMeA = CN[C@@H](C)C(=O)O; Ac5c = NC1(C(=O)O)CCCC1; Aze = O=C(O)[C@@H]1CCN1; Ac4c = NC1(C(=O)O)CCC1; Sar = CNCC(=O)O

How the values were obtained:
[1] = molecular target: GDP-bound KRAS wild-type protein (Homo sapiens, UniProt P01116); experiment: Binding to KRAS by surface plasmon resonance (SPR), Single Cycle Kinetics; details: SPR Single Cycle Kinetics, GDP-bound KRAS wild-type protein, 1:1 binding model; read-out: KRAS KD
[2] = molecular target: GDP-bound NRAS wild-type protein (Homo sapiens, UniProt P01111); experiment: Binding to NRAS by surface plasmon resonance (SPR), Single Cycle Kinetics; details: SPR, GDP-bound NRAS wild-type protein vs GDP-bound KRAS wild-type protein
[3] = molecular target: GDP-bound HRAS wild-type protein (Homo sapiens, UniProt P01112); experiment: Binding to HRAS by surface plasmon resonance (SPR), Single Cycle Kinetics; details: SPR, GDP-bound HRAS wild-type protein vs GDP-bound KRAS wild-type protein
Chain of GDP-bound HRAS wild-type protein (P01112 whole entry): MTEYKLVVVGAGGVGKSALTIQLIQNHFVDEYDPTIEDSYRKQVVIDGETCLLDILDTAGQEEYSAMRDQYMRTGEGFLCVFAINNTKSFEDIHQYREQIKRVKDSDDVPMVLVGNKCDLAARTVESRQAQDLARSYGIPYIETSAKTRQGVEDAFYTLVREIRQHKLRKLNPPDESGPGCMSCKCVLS

Chain of GDP-bound KRAS wild-type protein (P01116 whole entry): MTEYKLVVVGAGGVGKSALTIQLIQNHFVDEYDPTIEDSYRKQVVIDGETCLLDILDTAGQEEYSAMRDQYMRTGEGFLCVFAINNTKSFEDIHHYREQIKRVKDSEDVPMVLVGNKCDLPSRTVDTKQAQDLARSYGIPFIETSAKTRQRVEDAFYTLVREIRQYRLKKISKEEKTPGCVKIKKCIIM
Chain of GDP-bound NRAS wild-type protein (P01111 whole entry): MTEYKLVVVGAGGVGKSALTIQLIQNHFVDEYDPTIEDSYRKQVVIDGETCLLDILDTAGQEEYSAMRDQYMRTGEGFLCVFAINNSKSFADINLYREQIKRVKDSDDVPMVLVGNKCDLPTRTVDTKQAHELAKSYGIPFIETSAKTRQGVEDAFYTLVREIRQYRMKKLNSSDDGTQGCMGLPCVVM

Kd [1] | SMILES | NRAS/KRAS (ratio of KD value for NRAS to KD value for KRAS) [2] | HRAS/KRAS (ratio of KD value for HRAS to KD value for KRAS) [3]
0.7 nM | CCCN1C(=O)CN(C)C(=O)[C@@H]2CCN2C(=O)[C@H]([C@@H](C)CC)NC(=O)[C@H](CC(C)C)N(C)C(=O)C[C@@H](C(=O)N(C)C)NC(=O)[C@H](C2CCCC2)N(C)C(=O)C2(CCCC2)NC(=O)[C@@H]2C[C@@H](OCC)CN2C(=O)[C@H](CCc2ccc(C(F)(F)F)c(Cl)c2)NC(=O)CN(C)C(=O)[C@@H]1Cc1ccc(C(F)(F)F)cc1 [PP0377] ([NMeL]I[Aze][Sar][NPrPhe(4-CF3)][Sar][hPhe(3-Cl-4-CF3)][Hyp](Et)[Ac5c][NMeGly(cPent)]D-NMe2; lactam N-11) | B (a compound having 3 or more and less than 10 is denoted as B) | C (A compound having a KD ratio of 0.1 or more and less than 3 is denoted as C)
0.24 nM | CCCN1C(=O)[C@@H]2CCN2C(=O)[C@H](C)N(C)C(=O)[C@H]([C@@H](C)CC)NC(=O)[C@H](CC(C)C)N(C)C(=O)C[C@@H](C(=O)N(C)C)NC(=O)[C@H](C2CCCC2)N(C)C(=O)C2(CCCC2)NC(=O)[C@@H]2C[C@@H](OCC)CN2C(=O)[C@H](CCc2ccc(C(F)(F)F)c(Cl)c2)NC(=O)CN(C)C(=O)[C@@H]1Cc1ccc(C(F)(F)F)cc1 [PP0383] ([NMeL]I[NMeA][Aze][NPrPhe(4-CF3)][Sar][hPhe(3-Cl-4-CF3)][Hyp](Et)[Ac5c][NMeGly(cPent)]D-NMe2; lactam N-11) | C (A compound having a KD ratio of 0.1 or more and less than 3 is denoted as C) | B (a compound having 3 or more and less than 10 is denoted as B)
0.18 nM | CCCN1C(=O)[C@@H]2CCN2C(=O)[C@H](C)N(C)C(=O)[C@H]([C@@H](C)CC)NC(=O)[C@H](CC(C)C)N(C)C(=O)C[C@@H](C(=O)N(C)C)NC(=O)[C@H](C2CCCC2)N(C)C(=O)C2(CCC2)NC(=O)[C@@H]2C[C@@H](OCC)CN2C(=O)[C@H](CCc2ccc(C(F)(F)F)c(Cl)c2)NC(=O)CN(C)C(=O)[C@@H]1Cc1ccc(C(F)(F)F)cc1 [PP0384] ([NMeL]I[NMeA][Aze][NPrPhe(4-CF3)][Sar][hPhe(3-Cl-4-CF3)][Hyp](Et)[Ac4c][NMeGly(cPent)]D-NMe2; lactam N-11) | C (A compound having a KD ratio of 0.1 or more and less than 3 is denoted as C) | B (a compound having 3 or more and less than 10 is denoted as B)
0.69 nM | CCCN1C(=O)[C@@H]2CCN2C(=O)CN(C)C(=O)[C@H]([C@@H](C)CC)NC(=O)[C@H](CC(C)C)N(C)C(=O)C[C@@H](C(=O)N(C)C)NC(=O)[C@H](C2CCCC2)N(C)C(=O)C2(CCC2)NC(=O)[C@@H]2CCCN2C(=O)[C@H](CCc2ccc(C(F)(F)F)c(Cl)c2)NC(=O)CN(C)C(=O)[C@@H]1Cc1ccc(C(F)(F)F)cc1 [PP0386] ([NMeL]I[Sar][Aze][NPrPhe(4-CF3)][Sar][hPhe(3-Cl-4-CF3)]P[Ac4c][NMeGly(cPent)]D-NMe2; lactam N-11) | C (A compound having a KD ratio of 0.1 or more and less than 3 is denoted as C) | B (a compound having 3 or more and less than 10 is denoted as B)
0.16 nM | CCCN1C(=O)[C@@H]2CCN2C(=O)CN(C)C(=O)[C@H]([C@@H](C)CC)NC(=O)[C@H](CC(C)C)N(C)C(=O)C[C@@H](C(=O)N(C)C)NC(=O)[C@H](C2CCCC2)N(C)C(=O)C2(CCCC2)NC(=O)[C@@H]2C[C@@H](OCC)CN2C(=O)[C@H](CCc2ccc(C(F)(F)F)c(Cl)c2)NC(=O)CN(C)C(=O)[C@@H]1Cc1ccc(C(F)(F)F)cc1 [PP0389] ([NMeL]I[Sar][Aze][NPrPhe(4-CF3)][Sar][hPhe(3-Cl-4-CF3)][Hyp](Et)[Ac5c][NMeGly(cPent)]D-NMe2; lactam N-11) | C (A compound having a KD ratio of 0.1 or more and less than 3 is denoted as C) | B (a compound having 3 or more and less than 10 is denoted as B)
0.2 nM | CCCN1C(=O)[C@@H]2CCN2C(=O)CN(C)C(=O)[C@H]([C@@H](C)CC)NC(=O)[C@H](CC(C)C)N(C)C(=O)C[C@@H](C(=O)N(C)C)NC(=O)[C@H](C2CCCC2)N(C)C(=O)C2(CCC2)NC(=O)[C@@H]2C[C@@H](OCC)CN2C(=O)[C@H](CCc2ccc(C(F)(F)F)c(Cl)c2)NC(=O)CN(C)C(=O)[C@@H]1Cc1ccc(C(F)(F)F)cc1 [PP0390] ([NMeL]I[Sar][Aze][NPrPhe(4-CF3)][Sar][hPhe(3-Cl-4-CF3)][Hyp](Et)[Ac4c][NMeGly(cPent)]D-NMe2; lactam N-11) | C (A compound having a KD ratio of 0.1 or more and less than 3 is denoted as C) | B (a compound having 3 or more and less than 10 is denoted as B)

More lines, now with the values behind:

SMILES | Kd [1] | NRAS/KRAS (ratio of KD value for NRAS to KD value for KRAS) [2] | HRAS/KRAS (ratio of KD value for HRAS to KD value for KRAS) [3]
CCCN1C(=O)[C@@H]2CCN2C(=O)[C@H](C)N(C)C(=O)[C@H]([C@@H](C)CC)NC(=O)[C@H](CC(C)C)N(C)C(=O)C[C@@H](C(=O)N(C)C)NC(=O)[C@H](C2CCCC2)N(C)C(=O)C2(CCCC2)NC(=O)[C@@H]2CCCN2C(=O)[C@H](CCc2ccc(C(F)(F)F)c(Cl)c2)NC(=O)CN(C)C(=O)[C@@H]1Cc1ccc(C(F)(F)F)cc1 [PP0379] ([NMeL]I[NMeA][Aze][NPrPhe(4-CF3)][Sar][hPhe(3-Cl-4-CF3)]P[Ac5c][NMeGly(cPent)]D-NMe2; lactam N-11) | 0.38 nM | C (A compound having a KD ratio of 0.1 or more and less than 3 is denoted as C) | B (a compound having 3 or more and less than 10 is denoted as B)
CCCN1C(=O)[C@@H]2CCN2C(=O)[C@H](C)N(C)C(=O)[C@H]([C@@H](C)CC)NC(=O)[C@H](CC(C)C)N(C)C(=O)C[C@@H](C(=O)N(C)C)NC(=O)[C@H](C2CCCC2)N(C)C(=O)C2(CCC2)NC(=O)[C@@H]2CCCN2C(=O)[C@H](CCc2ccc(C(F)(F)F)c(Cl)c2)NC(=O)CN(C)C(=O)[C@@H]1Cc1ccc(C(F)(F)F)cc1 [PP0380] ([NMeL]I[NMeA][Aze][NPrPhe(4-CF3)][Sar][hPhe(3-Cl-4-CF3)]P[Ac4c][NMeGly(cPent)]D-NMe2; lactam N-11) | 0.59 nM | C (A compound having a KD ratio of 0.1 or more and less than 3 is denoted as C) | B (a compound having 3 or more and less than 10 is denoted as B)
CCCN1C(=O)[C@@H]2CCN2C(=O)[C@H](C)N(C)C(=O)[C@H]([C@@H](C)CC)NC(=O)[C@H](CC(C)C)N(C)C(=O)C[C@@H](C(=O)N(C)C)NC(=O)[C@H](C2CCCC2)N(C)C(=O)C2(CCCC2)NC(=O)[C@@H]2CC(F)(F)CN2C(=O)[C@H](CCc2ccc(C(F)(F)F)c(Cl)c2)NC(=O)CN(C)C(=O)[C@@H]1Cc1ccc(C(F)(F)F)cc1 [PP0381] ([NMeL]I[NMeA][Aze][NPrPhe(4-CF3)][Sar][hPhe(3-Cl-4-CF3)][Pro(4,4-F2)][Ac5c][NMeGly(cPent)]D-NMe2; lactam N-11) | 0.49 nM | C (A compound having a KD ratio of 0.1 or more and less than 3 is denoted as C) | B (a compound having 3 or more and less than 10 is denoted as B)
CCCN1C(=O)[C@@H]2CCN2C(=O)[C@H](C)N(C)C(=O)[C@H]([C@@H](C)CC)NC(=O)[C@H](CC(C)C)N(C)C(=O)C[C@@H](C(=O)N(C)C)NC(=O)[C@H](C2CCCC2)N(C)C(=O)C2(CCC2)NC(=O)[C@@H]2CC(F)(F)CN2C(=O)[C@H](CCc2ccc(C(F)(F)F)c(Cl)c2)NC(=O)CN(C)C(=O)[C@@H]1Cc1ccc(C(F)(F)F)cc1 [PP0382] ([NMeL]I[NMeA][Aze][NPrPhe(4-CF3)][Sar][hPhe(3-Cl-4-CF3)][Pro(4,4-F2)][Ac4c][NMeGly(cPent)]D-NMe2; lactam N-11) | 0.35 nM | C (A compound having a KD ratio of 0.1 or more and less than 3 is denoted as C) | B (a compound having 3 or more and less than 10 is denoted as B)
CCCN1C(=O)[C@@H]2CCN2C(=O)CN(C)C(=O)[C@H]([C@@H](C)CC)NC(=O)[C@H](CC(C)C)N(C)C(=O)C[C@@H](C(=O)N(C)C)NC(=O)[C@H](C2CCCC2)N(C)C(=O)C2(CCCC2)NC(=O)[C@@H]2CC(F)(F)CN2C(=O)[C@H](CCc2ccc(C(F)(F)F)c(Cl)c2)NC(=O)CN(C)C(=O)[C@@H]1Cc1ccc(C(F)(F)F)cc1 [PP0387] ([NMeL]I[Sar][Aze][NPrPhe(4-CF3)][Sar][hPhe(3-Cl-4-CF3)][Pro(4,4-F2)][Ac5c][NMeGly(cPent)]D-NMe2; lactam N-11) | 0.54 nM | C (A compound having a KD ratio of 0.1 or more and less than 3 is denoted as C) | B (a compound having 3 or more and less than 10 is denoted as B)
CCCN1C(=O)[C@@H]2CCN2C(=O)CN(C)C(=O)[C@H]([C@@H](C)CC)NC(=O)[C@H](CC(C)C)N(C)C(=O)C[C@@H](C(=O)N(C)C)NC(=O)[C@H](C2CCCC2)N(C)C(=O)C2(CCC2)NC(=O)[C@@H]2CC(F)(F)CN2C(=O)[C@H](CCc2ccc(C(F)(F)F)c(Cl)c2)NC(=O)CN(C)C(=O)[C@@H]1Cc1ccc(C(F)(F)F)cc1 [PP0388] ([NMeL]I[Sar][Aze][NPrPhe(4-CF3)][Sar][hPhe(3-Cl-4-CF3)][Pro(4,4-F2)][Ac4c][NMeGly(cPent)]D-NMe2; lactam N-11) | 0.78 nM | C (A compound having a KD ratio of 0.1 or more and less than 3 is denoted as C) | B (a compound having 3 or more and less than 10 is denoted as B)
